These results are taken from patent US20240245673A1, “Papain-like protease (PLpro) inhibitors” (Pfizer Inc., priority 2022, published 2024).

As a reminder, the IC50 is the concentration that inhibits the measured activity by half.

The test concerns the target SARS-CoV-2 Papain like protease (PLpro) (Severe acute respiratory syndrome coronavirus 2 (2019-nCoV) (SARS-CoV-2), UniProt P0DTD1). The test can be described thus: Papain Like Protease (PLpro) biochemical assay with profluorogenic substrate Z-RLRGG-AMC. Conditions: SARS-CoV-2 PLpro 6.25 nM, 25 μM Z-RLRGG-AMC substrate, 60 minute reaction; read-out: IC50.
Consider `Cc1ccccc1C(=O)NC(C)c1cc(-c2csc(C#N)c2)nc2ccccc12` (centres unmarked) [Example 103, N-{1-[2-(5-cyanothiophen-3-yl)quinolin-4-yl]ethyl}-2-methylbenzamide], for which the half-maximal inhibitory concentration (IC50) came to 616 nM. The same measure for `Cc1cc(C(C)(C)NC(=O)c2cscn2)ccc1C(=O)N[C@H](C)c1cc(-c2cnn(C)c2)nc2ccccc12` [Example 214, (R)-N-(2-(3-methyl-4-((1-(2-(1-methyl-1H-pyrazol-4-yl)quinolin-4-yl)ethyl)carbamoyl)phenyl)propan-2-yl)thiazole-4-carboxamide]: 169 nM; for `Cc1ccc(C(N)=O)cc1C(=O)NC(C)c1cc(-n2nccn2)cc2ccccc12` (centres unmarked) [Example 2, N^1-(1-(3-(2H-1,2,3-triazol-2-yl)naphthalen-1-yl)ethyl)-6-methylisophthalamide]: 1370 nM. Next, `COC(=O)c1c[nH]c(-c2cc(C(C)NC(=O)c3ccccc3C)c3ccccc3n2)c1` (centres unmarked) [Example 128, methyl 5-{4-[1-(2-methylbenzamido)ethyl]quinolin-2-yl}-1H-pyrrole-3-carboxylate]: 164 nM; `COC[C@@H](OCc1cocn1)c1ccc(C(=O)NC2(c3cc(-c4cnn(C)c4)cc4nc(C)ccc34)CC2)c(C)c1` (single isomer, unassigned) [Example 365]: < 1 nM. The same measure for `Cc1cc(C2(NC(=O)c3ncc[nH]3)CC2)ccc1C(=O)N[C@H](C)c1cc(-c2cnn(C)c2)nc2ccccc12` [Example 213, (R)-N-(1-(3-methyl-4-((1-(2-(1-methyl-1H-pyrazol-4-yl)quinolin-4-yl)ethyl)carbamoyl)phenyl)cyclopropyl)-1H-imidazole-2-carboxamide]: 219 nM; for `Cc1ccccc1C(=O)NC(C)c1cc(NCC2CCOCC2)nc2ccccc12` (centres unmarked) [Example 141, 2-methyl-N-[1-(2-{[(oxan-4-yl)methyl]amino}quinolin-4-yl)ethyl]benzamide]: 778 nM.

As for `CC(=O)Nc1cc([C@@H](C)NC(=O)c2ccccc2C)c2ccccc2n1` [Example 40, (R)—N-(1-(2-acetamidoquinolin-4-yl)ethyl)-2-methylbenzamide], the IC50 turned out to be 3160 nM. Next, `Cc1cc(COCc2cscn2)ccc1C(=O)NC1(c2cc(-c3cnn(C)c3)nc3ccccc23)CC1` [Example 323, 2-methyl-N-(1-(2-(1-methyl-1H-pyrazol-4-yl)quinolin-4-yl)cyclopropyl)-4-((thiazol-4-ylmethoxy)methyl)benzamide]: < 1 nM; `Cc1cc(CC(=O)N(C)C)ccc1C(=O)N[C@H](C)c1cc(-c2cnn(C)c2)nc2ccccc12` [Example 260, (R)-4-(2-(dimethylamino)-2-oxoethyl)-2-methyl-N-(1-(2-(1-methyl-1H-pyrazol-4-yl)quinolin-4-yl)ethyl)benzamide]: 244 nM; `Cc1ccccc1C(=O)NC(C)c1cc(NCC2CCCOC2)nc2ccccc12` (centres unmarked) [Example 140, 2-methyl-N-[1-(2-{[(oxan-3-yl)methyl]amino}quinolin-4-yl)ethyl]benzamide]: 1960 nM. On to `CCOC(=O)[C@@H]1O[C@H]1C(=O)NNC(=O)CCc1ccccc1C(=O)N[C@H](C)c1cc(-c2cnn(C)c2)nc2ccccc12` [Example 250, ethyl (2R,3R)-3-(2-(3-(2-(((R)-1-(2-(1-methyl-1H-pyrazol-4-yl)quinolin-4-yl)ethyl)carbamoyl)phenyl)propanoyl)hydrazine-1-carbonyl)oxirane-2-carboxylate], for which the IC50 was found to be 2 nM. With `Cc1cc(COCc2ncsc2CO)ccc1C(=O)NC1(c2cc(-c3cnn(C)c3)nc3ccccc23)CC1` [Example 330, 4-(((5-(hydroxymethyl)thiazol-4-yl)methoxy)methyl)-2-methyl-N-(1-(2-(1-methyl-1H-pyrazol-4-yl)quinolin-4-yl)cyclopropyl)benzamide], the 50% inhibitory concentration (IC50) was < 1 nM. The same measure for `Cc1ccccc1C(=O)NC(C)c1cc(-c2cnn(CC(F)F)c2)nc2ccccc12` (centres unmarked) [Example 120, N-(1-{2-[1-(2,2-difluoroethyl)-1H-pyrazol-4-yl]quinolin-4-yl}ethyl)-2-methylbenzamide]: 345 nM.
